Data on 9 compounds can be found in ChEMBL document CHEMBL1134903, “Synthesis and SAR of azalide 3,6-ketal aromatic derivatives as potent Gram-positive and Gram-negative antibacterial agents” (Bioorg Med Chem Lett, 2002).

Common to all, as to type: functional
Experiment [1] concerns Pasteurella multocida. The experiment in a line: Minimum inhibitory concentration against Pasteurella multocida.
Experiment [2] deals with Staphylococcus aureus. The experiment in a line: Effective dose required to inhibit Staphylococcus aureus intraperitoneal (IP) infection model.
Experiment [3] deals with Escherichia coli. As to the kind of experiment: Minimum inhibitory concentration against Escherichia coli.
The subject of experiment [4] is Staphylococcus aureus. The experiment in a line: Colony forming units of Staphylococcus aureus intramammary infection (IMI) model was determined at a dose of 15 mg/kg.
The subject of experiment [5] is Staphylococcus aureus. The experiment in a line: Minimum inhibitory concentration against Staphylococcus aureus.

Values after ≈ are worked out from the molar mass of the structure shown.

The term MIC denotes the lowest concentration found to suppress growth. Higher therefore signals a need for much substance. A word on the ED50: it is the midpoint of the dose-response relation. Turning to `CC[C@H]1OC(=O)[C@H](C)[C@H]2OC3(CCN(CCc4ccc(OC)cc4)CC3)O[C@](C)(C[C@@H](C)CN(C)[C@H](C)[C@@H](O)[C@]1(C)O)[C@H](O[C@@H]1O[C@H](C)C[C@H](N(C)C)[C@H]1O)[C@H]2C`, the results for the minimum inhibitory concentration (MIC) in experiment [1], in experiment [3] and in experiment [5] were 0.03 µg/mL (≈ 0.0372 µM), 0.39 µg/mL (≈ 0.484 µM) and 0.39 µg/mL (≈ 0.484 µM), respectively. Moreover, in experiment [2], the ED50 was > 20 mg/kg. The “Log CFU” value in experiment [4] is 9.7.
For the compound `CC[C@H]1OC(=O)[C@H](C)[C@H]2OC3(CCN(C(=O)c4ccc[nH]4)CC3)O[C@](C)(C[C@@H](C)CN[C@H](C)[C@@H](O)[C@]1(C)O)[C@H](O[C@@H]1O[C@H](C)C[C@H](N(C)C)[C@H]1O)[C@H]2C`, the MIC turned out to be 0.05 µg/mL (≈ 0.0666 µM) in experiment [1], 0.78 µg/mL (≈ 1.04 µM) in experiment [3] and 0.78 µg/mL (≈ 1.04 µM) in experiment [5]. In addition, the ED50 in experiment [2] amounted to 19 mg/kg. The “Log CFU” value in experiment [4] turned out to be 4.7.
In the case of `CC[C@H]1OC(=O)[C@H](C)[C@H]2OC3(CCN(Cc4cccnc4)CC3)O[C@](C)(C[C@@H](C)CN[C@H](C)[C@@H](O)[C@]1(C)O)[C@H](O[C@@H]1O[C@H](C)C[C@H](N(C)C)[C@H]1O)[C@H]2C`, the MIC came to 0.03 µg/mL (≈ 0.0401 µM) in experiment [1], 0.78 µg/mL (≈ 1.04 µM) in experiment [3] and 0.39 µg/mL (≈ 0.521 µM) in experiment [5]. Also, the ED50 in experiment [2] was < 5 mg/kg. In addition, the “Log CFU” value in experiment [4] is 1.3.
In the same order, the values of `CC[C@H]1OC(=O)[C@H](C)[C@H]2OC3(CCN(C(=O)c4cccnc4)CC3)O[C@](C)(C[C@@H](C)CN[C@H](C)[C@@H](O)[C@]1(C)O)[C@H](O[C@@H]1O[C@H](C)C[C@H](N(C)C)[C@H]1O)[C@H]2C` are 0.1 µg/mL (≈ 0.131 µM), 3.13 µg/mL (≈ 4.1 µM), 1.56 µg/mL (≈ 2.04 µM), 6.4 mg/kg and 3.2.
In the case of `CC[C@H]1OC(=O)[C@H](C)[C@@H](O[C@H]2C[C@@](C)(OC)[C@@H](O)[C@H](C)O2)[C@H](C)[C@@H](O[C@@H]2O[C@H](C)C[C@H](N(C)C)[C@H]2O)[C@](C)(O)C[C@@H](C)CN(C)[C@H](C)[C@@H](O)[C@]1(C)O` [AZITHROMYCIN], the results for the MIC in experiment [1], in experiment [3] and in experiment [5] were 0.1 µg/mL (≈ 0.134 µM), 1.56 µg/mL (≈ 2.08 µM) and 0.2 µg/mL (≈ 0.267 µM), respectively. For the same compound, the ED50 in experiment [2] came to 4.1 mg/kg. For the same compound, the “Log CFU” value in experiment [4] amounted to 2.8.
In the same order, the values of `CC[C@H]1OC(=O)[C@H](C)[C@H]2OC3(CCN(C(=O)c4cnc5ccccc5c4)CC3)O[C@](C)(C[C@@H](C)CN[C@H](C)[C@@H](O)[C@]1(C)O)[C@H](O[C@@H]1O[C@H](C)C[C@H](N(C)C)[C@H]1O)[C@H]2C` are 0.1 µg/mL (≈ 0.123 µM), 3.13 µg/mL (≈ 3.85 µM), 0.39 µg/mL (≈ 0.48 µM), 13 mg/kg and 3.3.
Consider `CC[C@H]1OC(=O)[C@H](C)[C@H]2OC3(CCN(C(=O)c4ccnc5ccccc45)CC3)O[C@](C)(C[C@@H](C)CN(C)[C@H](C)[C@@H](O)[C@]1(C)O)[C@H](O[C@@H]1O[C@H](C)C[C@H](N(C)C)[C@H]1O)[C@H]2C`, for which the MIC in experiment [1] worked out at 0.1 µg/mL (≈ 0.121 µM); in experiment [3], 6.25 µg/mL (≈ 7.56 µM); in experiment [5], 0.39 µg/mL (≈ 0.472 µM). Also, in experiment [2], the ED50 turned out to be 20 mg/kg. The “Log CFU” value in experiment [4] stood at 2.5.
`CC[C@H]1OC(=O)[C@H](C)[C@H]2OC3(CCN(CCc4ccccc4)CC3)O[C@](C)(C[C@@H](C)CN(C)[C@H](C)[C@@H](O)[C@]1(C)O)[C@H](O[C@@H]1O[C@H](C)C[C@H](N(C)C)[C@H]1O)[C@H]2C`: the figures for the MIC in experiment [1] and in experiment [3] were 0.02 µg/mL (≈ 0.0258 µM) and 0.075 µg/mL (≈ 0.0966 µM), respectively. Also, in experiment [2], the ED50 is > 20 mg/kg. Further, in experiment [4], the “Log CFU” value is 7.3.
Regarding `CC[C@H]1OC(=O)[C@H](C)[C@H]2OC3(CCN(CCc4ccc(NC(C)=O)cc4)CC3)O[C@](C)(C[C@@H](C)CN(C)[C@H](C)[C@@H](O)[C@]1(C)O)[C@H](O[C@@H]1O[C@H](C)C[C@H](N(C)C)[C@H]1O)[C@H]2C`, the results for the MIC in experiment [1] and in experiment [3] were 0.05 µg/mL (≈ 0.06 µM) and 0.39 µg/mL (≈ 0.468 µM), respectively. The compound also had an ED50 in experiment [2] of 9.6 mg/kg. The “Log CFU” value in experiment [4] is 9.7.
